How the values were obtained:
[1] = tested on: Neutrophils; assay: Measurement of apoptosis by DNA fragmentation (propidium iodide flow cytometry); type: cell-based, human; conditions: neutrophils cultured overnight in the presence of GM-CSF
Description: Neutrophils are isolated from the blood as described in Example 1 and resuspended at a concentration of 2×10^6/ml. Five hundred microlitres are pipetted into wells of a 24 well plate and incubated in the presence or absence of survival factors.
After this incubation, the neutrophils are carefully resuspended by gentle agitation and the total contents of the well are placed into an eppendorf and centrifuged @2800 rpm for 2 min @ RT in a minifuge. The cell pellet is carefully resuspended in 300 μl of ice cold hypotonic fluorochrome solution (50 μg/ml Propidium Iodide, 0.1% Sodium Citrate and 0.1% Triton X-100) and placed in a fridge for 24 h @ 4° C.
Prepared samples are analysed with a FacsCalibre flow cytometer (Becton Dickinson) using double discrimination to ensure single cell suspension with Log Forward and Side Scatter Parameter acquisition.

[2] = tested on: Survivin mRNA; assay: LifeGrid microarray of Survivin transcripts in neutrophils; type: cell-based, human; conditions: between 2 and 6 h following addition of GM-CSF
Description: Primary human neutrophils are isolated and purified from peripheral blood of normal healthy individuals using standard techniques. Neutrophils are resuspended in serum containing culture medium together with GM-CSF (50 U) at a concentration of 2×10^6/ml, and cultured for 0 h (control), 2 h, 4 h and 6 h at 37° C. Total RNA is then prepared from both groups using acid phenol/guanidine isothiocyanate extraction (RNAzol B; Biogenesis), or RNeasy RNA preparation kits (Qiagen). Any contaminating genomic DNA is removed by DNase treatment (DNase I, Gibco-BRL). […]
This example describes the use of a STORM Phosphoimager to quantitatively image positive signals across the filter arrays. […]
The captured image file is then analysed using software such as Array Vision (Imaging Research Inc.; See FIG. 5). […] This program contains facilities for spot detection and quantification, and background detection and quantification. […] As the data is imported to the database, a Normalisation factor is calculated and the sDENs values modified accordingly. […] A normalization factor may be derived from Linear Regression calculated by reference to housekeeping genes. Alternatively, the Global Mean is calculated as the average of the sDens values across all of the arrays to be compared and a normalisation factor is then derived by division of the overall spot density with the Global Mean value. […]

**Q.** “Granulocyte macrophage colony-stimulating factor [GM-CSF]” was tested. Which “apoptosis by DNA fragmentation (G0/G1 and sub-G1 peaks)” value [1] did it give?
**A.** few cells in the sub-G1 peak

**Q.** What about the “Expression of Survivin (microarray fold change)” value [2] of the same substance?
**A.** up-regulated

Reference: patent US20060160095A1, “Survivin” (EiRx Therapeutics Limited, priority 2002, published 2006)
